In the test the target is T1, UCHL1 (Homo sapiens, UniProt P09936).
T1 construct: made in house; host or cells: HEK293T
T1 sequence (P09936 1-223): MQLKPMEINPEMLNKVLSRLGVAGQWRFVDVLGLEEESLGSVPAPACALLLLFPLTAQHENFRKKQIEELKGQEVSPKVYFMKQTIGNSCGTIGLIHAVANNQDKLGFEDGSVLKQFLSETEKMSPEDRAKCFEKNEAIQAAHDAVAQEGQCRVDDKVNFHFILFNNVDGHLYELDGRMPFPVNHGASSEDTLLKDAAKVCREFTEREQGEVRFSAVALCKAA
The test is described as follows: UCHL1 biochemical IC50 assay (fluorescence polarisation). To be noted: 30 min enzyme/compound pre-incubation at room temp, read after 2 hr incubation, read-out: Activity range (UCHL1 biochemical IC50 assay). The source says: Biological Activity of Compounds of the Invention Abbreviations: TAMRA carboxytetramethylrhodamine PCR polymerase chain reaction PBS phosphate buffered saline EDTA ethylenediaminetetraacetic acid Tris 2-amino-2-(hydroxymethyl)-1,3-propanediol NP-40 Nonidet P-40, octylphenoxypolyethoxyethanol BSA bovine serum albumin In Vitro UCHL1 Inhibition Assay Expression and Purification of UCHL1
The UCHL1 construct was PCR amplified and cloned into a pFLAG-CMV-6a vector (Sigma-Aldrich) with an N-terminal FLAG tag. HEK293T cells were transfected with FLAG-UCHL1 using TransIT-LT1 transfection reagent (Mirus) according to the manufacturer's instructions. Cells were harvested 40 hours after transfection. Cells were washed once with PBS and scraped in lysis buffer (50 mM Tris, pH 7.5, 150 mM NaCl, 3 mM EDTA, 0.5% NP40, 10% glycerol, 5 mM beta-mercaptoethanol, protease inhibitors (complete mini, Roche) and phosphatase inhibitors (PhosSTOP mini, Roche). Lysates were incubated for 30 min on ice and centrifuged at 1200 rpm for 10 min at 4° C. Soluble supernatant was added to FLAG affinity resin (EZview Rad ANTI-FLAG M2 affinity gel, Sigma-Aldrich) equilibrated in low salt buffer (20 mM Tris, pH 7.5, 150 mM NaCl, 0.5 mM EDTA, 5 mM beta-mercaptoethanol) and incubated at 4° C. for 3 hours rotating. The resin was spun at 2000 rpm for 2 min and the supernatant was removed. The resin was washed two times with low salt buffer and one time with high salt buffer (20 mM Tris, pH 7.5, 500 mM NaCl, 0.5 mM EDTA, 5 mM beta-mercaptoethanol, protease inhibitors (complete mini, Roche) and phosphatase inhibitors (PhosSTOP mini, Roche). To elute the bound UCHL1, elution buffer (10 mM Tris, pH 7.5, 150 mM NaCl, 0.5 mM FDTA, 10% glycerol, 0.5% NP40, 5 mM beta-mercaptoethanol, 0.15 mg/ml 3×FLAG peptide (Sigma-Aldrich)) was added to the resin and incubated at 4° C. for 2.5 hours rotating. The resin was centrifuged at 4000 rpm for 30 seconds, and the supernatant containing purified FLAG-UCHL1 was removed and stored at −80° C.
UCHL1 Biochemical IC50 Assay
Dilution plates were prepared at 21 times the final concentration (2100 μM for a final concentration of 100 µM) in 50% DMSO in a 96-well polypropylene V-bottom plate (Greiner #651201). A typical 8-point dilution series to be 100, 30, 10, 3, 1, 0.3, 0.1, 0.03 μM final. Reactions were performed in duplicate in black 384 well plates (small volume, Greiner 784076) in a final reaction volume of 21 μl. Either 1 μl of 50% DMSO or diluted compound was added to the plate. UCHL1 was diluted in reaction buffer (20 mM Tris, pH 7.5, 100 mM NaCl, 0.05% Tween 20, 0.5 mg/ml BSA, 5 mM—beta mercaptoethanol) to the equivalent of 0.05 μl/well and 10 μl of diluted UCHL1 was added to the compound. Enzyme and compound were incubated for 30 min at room temp. Reactions were initiated by the addition of 50 nM of TAMRA labelled peptide linked to ubiquitin via an iso-peptide bond as fluorescence polarisation substrate. Reactions were read immediately after addition of substrate and following a 2 hr incubation at room temperature. Readings were performed on a Pherastar Plus (BMG Labtech). λ Excitation 540 nm; k Emission 590 nm.
In general terms: In fluorescence polarisation assays a small probe gives low polarisation when free and higher when bound to something large.

This is an account of results in patent publication US11472798B2 (Mission Therapeutics Limited, priority 2014, dated 2022).

Some results are limits rather than exact numbers.

The term IC50 denotes the concentration that gives 50% inhibition.

As to `CC1CC(C(=O)Nc2ncc(-c3ccccc3)s2)CN1C#N` (mixture of isomers) [Example 88, 1-cyano-5-methyl-N-(5-phenylthiazol-2-yl)pyrrolidine-3-carboxamide], the 50% inhibitory concentration (IC50) lay within 1 to 10 µM.
In the case of `CC1CC(C(=O)Nc2cn(-c3ccccc3)cn2)CN1C#N` (mixture of isomers) [Example 89, I-cyano-5-methyl-N-(1-phenyl-1H-imidazol-4-yl)pyrrolidine-3-carboxamide], the IC50 lay within 10 to 30 µM.
In the case of `CC1CC(C(=O)Nc2cc(-c3ccccc3)[nH]n2)CN1C#N` (mixture of isomers) [Example 90, 1-cyano-5-methyl-N-(5-phenyl-1H-pyrazol-3-yl)pyrrolidine-3-carboxamide] it was 10 to 30 µM.
In the case of `C[C@@H]1CN(C#N)C[C@H]1C(=O)Nc1ncc(-c2ccccc2Cl)s1` (racemic) [Example 84, (±)-trans-N-(5-(2-chlorophenyl)thiazol-2-yl)-1-cyano-4-methylpyrrolidine-3-carboxamide] it was 1 to 10 µM; in that of `CC[C@@H]1CN(C#N)C[C@H]1C(=O)Nc1ncc(-c2ccccc2)s1` (racemic) [Example 86, (±)-1-cyano-4-ethyl-N-(5-phenylthiazol-2-yl)pyrrolidine-3-carboxamide], less than 1 µM.
As for `C[C@@H]1CN(C#N)C[C@H]1C(=O)Nc1ncc(N2CCCCC2)s1` (racemic) [Example 104, (±)-trans-1-cyano-4-methyl-N-(5-(piperidin-1-yl)thiazol-2-yl)pyrrolidine-3-carboxamide], the figure is less than 1 µM; as for `Cc1noc(C)c1-c1ccc2nc(NC(=O)[C@@H]3CN(C#N)C[C@H]3C(F)(F)F)cn2c1` (racemic) [Example 210, (±)-trans-1-cyano-N-(6-(3,5-dimethylisoxazol-4-yl)imidazo[1,2-a]pyridin-2-yl)-4-(trifluoromethyl)pyrrolidine-3-carboxamide], less than 1 µM.
In the case of `N#CN1C[C@@H](C(=O)Nc2ncc(-c3ccccc3)s2)[C@H](c2cccnc2)C1` (relative stereo) [Example 282, trans-1-cyano-N-(5-phenylthiazol-2-yl)-4-(pyridin-3-yl)pyrrolidine-3-carboxamide], the half-maximal inhibitory concentration (IC50) lay within 1 to 10 µM.
`N#CN1C[C@@H](C(=O)Nc2ncc(-c3ccccc3)s2)[C@H](c2cncnc2)C1` (relative stereo) [Example 283, trans-1-cyano-N-(5-phenylthiazol-2-yl)-4-(pyrimidin-5-yl)pyrrolidine-3-carboxamide]: the IC50 is 1 to 10 µM.
Take `N#CN1CC[C@H](C(=O)Nc2ncc(-c3ccccc3)s2)C1` [Example 1, (S)-1-cyano-N-(5-phenylthiazol-2-yl)pyrrolidine-3-carboxamide]: the IC50 is less than 1 µM.
In the case of `N#CN1CCC(C(=O)Nc2ncc(-c3cccc(F)c3)s2)C1` (stereo not drawn) [Example 2, 1-cyano-N-(5-(3-fluorophenyl)thiazol-2-yl)pyrrolidine-3-carboxamide] it was less than 1 µM.
As for `N#CN1CCC(C(=O)Nc2ncc(-c3ccccc3F)s2)C1` (stereo not drawn) [Example 3, 1-cyano-N-(5-(2-fluorophenyl)thiazol-2-yl)pyrrolidine-3-carboxamide], the figure is 1 to 10 µM; as for `N#CN1CCC(C(=O)Nc2ncc(-c3ccc(Cl)cc3)s2)C1` (stereo not drawn) [Example 4, N-(5-(4-chlorophenyl)thiazol-2-yl)-1-cyano-pyrrodine-3-carboxamide], less than 1 µM.
On to `N#CN1CCC(C(=O)Nc2ncc(-c3cccc(Cl)c3)s2)C1` (stereo not drawn) [Example 5, N-(5-(3-chlorophenyl)thiazol-2-yl)-1-cyano-pyrrolidine-3-carboxamide], for which the IC50 lay within 1 to 10 µM.
As for `N#CN1CCC(C(=O)Nc2ncc(-c3ccccc3Cl)s2)C1` (stereo not drawn) [Example 6, N-(5-(2-chlorophenyl)thiazol-2-yl)-1-cyano-pyrrolidine-3-carboxamide], the figure is 1 to 10 µM; as for `Cc1cnc(NC(=O)C2CCN(C#N)C2)s1` (stereo not drawn) [Example 7, 1-cyano-N-(5-methylthiazol-2-yl)pyrrolidine-3-carboxamide], 1 to 10 µM; as for `CC(C)(C)c1cnc(NC(=O)C2CCN(C#N)C2)s1` (stereo not drawn) [Example 8, N-(5-(tert-butyl)thiazol-2-yl)-1-cyano-pyrrolidine-3-carboxamide], 1 to 10 µM.
As for `N#CN1CCC(C(=O)Nc2nc(-c3ccccc3)cs2)C1` (stereo not drawn) [Example 9, 1-cyano-N-(4-phenylthiazol-2-yl)pyrrolidine-3-carboxamide], the concentration for half-maximal inhibition (IC50) lay within 10 to 30 µM.
As for `N#CN1CCC(C(=O)Nc2cnc(-c3ccccc3)s2)C1` (stereo not drawn) [Example 10, 1-cyano-N-(2-phenylthiazol-5-yl)pyrrolidine-3-carboxamide], the concentration for half-maximal inhibition (IC50) is 10 to 30 µM.
As for `N#CN1CCC(C(=O)Nc2nnc(-c3ccccc3)s2)C1` (stereo not drawn) [Example 11, 1-cyano-N-(5-phenyl-1,3,4-thiadiazol-2-yl)pyrrolidine-3-carboxamide], the figure is 1 to 10 µM.
In the case of `CCc1nnc(NC(=O)C2CCN(C#N)C2)s1` (stereo not drawn) [Example 12, 1-cyano-N-(5-ethyl-1,3,4-thiadiazol-2-yl)pyrrolidine-3-carboxamide] it was 1 to 10 µM; in that of `N#CN1CCC(C(=O)Nc2cc(-c3ccccc3)no2)C1` (stereo not drawn) [Example 13], 1 to 10 µM; in that of `COc1ccc(-c2cc(NC(=O)C3CCN(C#N)C3)on2)cc1` (stereo not drawn) [Example 14, 1-cyano-N-(3-(4-methoxyphenyl)isoxazol-5-yl)pyrrolidine-3-carboxamide], 1 to 10 µM.
As for `N#CN1CCC(C(=O)Nc2cc(-c3ccccc3)on2)C1` (stereo not drawn) [Example 15, 1-cyano-N-(5-phenylisoxazol-3-yl)pyrrolidine carboxamide], the figure is 1 to 10 µM.
In the case of `CC(C)(C)c1cc(NC(=O)C2CCN(C#N)C2)no1` (stereo not drawn) [Example 16, N-(5-(tert-butyl)isoxazol-1-3-yl)-1-cyano-pyrrolidine-3-carboxamide], the half-maximal inhibitory concentration (IC50) fell in the range of 10 to 30 µM.
As for `CC(C)(C)c1cc(NC(=O)C2CCN(C#N)C2)[nH]n1` (stereo not drawn) [Example 17, N-(3-(tert-butyl)-1H-pyrazol-5-yl)-1-cyano-pyrrolidine-3-carboxamide], the figure is 1 to 10 µM; as for `N#CN1CCC(C(=O)Nc2nc3ccccc3s2)C1` (stereo not drawn) [Example 18, N-(benzo[d]thiazol-2-yl)-1-cyano-pyrrolidine-3-carboxamide], 1 to 10 µM.
In the case of `Cc1ccc2nc(NC(=O)C3CCN(C#N)C3)sc2c1` (stereo not drawn) [Example 19, 1-cyano-N-(6-methylbenzo[d]thiazol-2-yl)pyrrolidine-3-carboxamide] it was 1 to 10 µM; in that of `N#CN1CCC(C(=O)Nc2nc3ccc(C(F)(F)F)cc3s2)C1` (stereo not drawn) [Example 20, 1-cyano-N-(6-(trifluoro-methyl)benzo[d]thiazol-2-yl)pyrrolidine-3-carboxamide], 1 to 10 µM; in that of `COc1ccc2nc(NC(=O)C3CCN(C#N)C3)sc2c1` (stereo not drawn) [Example 21, 1-cyano-N-(6-methoxybenzo[d]thiazol-2-yl)pyrrolidine-3-carboxamide], 1 to 10 µM.
As for `N#CN1CCC(C(=O)Nc2nc3ccc(Br)cc3s2)C1` (stereo not drawn) [Example 22, N-(6-bromobenzo[d]thiazol-2-yl)-1-cyano-pyrrolidine-3-carboxamide], the figure is 1 to 10 µM.
With `N#CN1CCC(C(=O)Nc2nc3ccccc3[nH]2)C1` (stereo not drawn) [Example 23, N-(1H-benzo[d]imidazol-2-yl)-1-cyano-pyrrolidine-3-carboxamide], the IC50 is 10 to 30 µM.
In the case of `N#CN1CCC(C(=O)Nc2ccccn2)C1` (stereo not drawn) [Example 24, 1-cyano-N-(pyridin-2-yl)pyrrolidine-3-carboxamide] it was 10 to 30 µM.
